The source of these data is paper PMC3758386 (Psychopharmacology, 2013).

For orientation: Ki means the dissociation constant of the complex between target and ligand, obtained from inhibition or displacement.

One data set has as its target T1, Adenosine A1 (Homo sapiens, UniProt P30542).
T1 sequence (P30542 1-326): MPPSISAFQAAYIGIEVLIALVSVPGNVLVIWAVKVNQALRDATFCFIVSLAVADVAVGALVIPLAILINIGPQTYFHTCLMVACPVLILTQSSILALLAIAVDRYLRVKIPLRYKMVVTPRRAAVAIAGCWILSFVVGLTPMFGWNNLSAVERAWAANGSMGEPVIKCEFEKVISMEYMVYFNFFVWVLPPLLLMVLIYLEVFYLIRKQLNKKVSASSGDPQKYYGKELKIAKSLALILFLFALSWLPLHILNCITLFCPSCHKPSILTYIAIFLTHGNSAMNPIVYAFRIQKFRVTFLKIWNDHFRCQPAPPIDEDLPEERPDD
In words: receptor screen, Adenosine A1. To be noted: [3H]DPCPX, inactive = displacement at 10,000 nM less than 75%. It counts as binding.

A further data set concerns the target Dopamine D2L (Homo sapiens, UniProt P14416). In words: receptor screen, Dopamine D2L. The data set is classed as binding. As to conditions: inactive = displacement at 10,000 nM less than 75%.
Another data set has as its target Estrogen ERα (Homo sapiens, UniProt P03372). In words: receptor screen, Estrogen ERα. It counts as binding. As to conditions: inactive = displacement at 10,000 nM less than 75%.
The target in another data set is T2, Glucocorticoid (Homo sapiens, UniProt P04150).
T2 sequence (P04150 1-777): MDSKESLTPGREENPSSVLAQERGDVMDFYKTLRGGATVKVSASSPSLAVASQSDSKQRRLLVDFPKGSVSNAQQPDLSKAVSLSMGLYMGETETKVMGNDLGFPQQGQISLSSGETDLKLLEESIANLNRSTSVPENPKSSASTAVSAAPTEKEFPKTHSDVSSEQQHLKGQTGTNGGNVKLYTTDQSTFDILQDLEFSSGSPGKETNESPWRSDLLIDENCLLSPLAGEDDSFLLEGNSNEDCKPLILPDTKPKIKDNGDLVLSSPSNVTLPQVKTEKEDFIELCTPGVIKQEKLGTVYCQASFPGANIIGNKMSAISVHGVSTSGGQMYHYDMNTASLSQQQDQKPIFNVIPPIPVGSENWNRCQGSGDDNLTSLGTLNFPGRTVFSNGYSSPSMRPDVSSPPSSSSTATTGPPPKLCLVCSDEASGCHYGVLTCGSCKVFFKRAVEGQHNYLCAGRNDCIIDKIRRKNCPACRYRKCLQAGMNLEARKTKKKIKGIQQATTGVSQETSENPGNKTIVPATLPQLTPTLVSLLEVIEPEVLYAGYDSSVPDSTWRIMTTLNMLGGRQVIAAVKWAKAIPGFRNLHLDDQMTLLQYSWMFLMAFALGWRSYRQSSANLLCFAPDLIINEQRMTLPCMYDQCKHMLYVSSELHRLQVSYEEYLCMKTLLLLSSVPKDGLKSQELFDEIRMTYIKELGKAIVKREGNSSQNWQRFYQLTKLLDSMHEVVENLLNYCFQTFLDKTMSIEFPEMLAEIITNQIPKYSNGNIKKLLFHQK
Nature of the data set: receptor screen, Glucocorticoid. It counts as binding. To be noted: inactive = displacement at 10,000 nM less than 75%.

The next data set concerns the target T3, Muscarinic M2 (Homo sapiens, UniProt P08172).
T3 sequence (P08172 1-466): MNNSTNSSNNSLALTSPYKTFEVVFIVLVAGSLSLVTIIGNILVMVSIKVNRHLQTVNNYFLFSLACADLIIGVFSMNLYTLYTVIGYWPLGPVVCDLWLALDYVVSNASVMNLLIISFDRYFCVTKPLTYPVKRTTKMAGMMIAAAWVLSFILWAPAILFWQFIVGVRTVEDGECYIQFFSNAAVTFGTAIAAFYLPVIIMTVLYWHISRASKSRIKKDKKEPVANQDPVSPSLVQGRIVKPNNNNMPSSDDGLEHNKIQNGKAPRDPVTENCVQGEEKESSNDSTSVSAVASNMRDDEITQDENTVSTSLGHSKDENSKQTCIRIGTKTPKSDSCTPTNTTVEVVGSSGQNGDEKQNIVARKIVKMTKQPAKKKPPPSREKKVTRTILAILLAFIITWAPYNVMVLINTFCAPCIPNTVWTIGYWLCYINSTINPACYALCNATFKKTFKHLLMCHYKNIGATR
Nature of the data set: receptor screen, Muscarinic M2. It counts as binding. As to conditions: read-out: Ki Muscarinic M2, [3H]N-methylscopolamine.

The next data set addresses Muscarinic M3 (Homo sapiens, UniProt P20309). In words: receptor screen, Muscarinic M3. The data set is classed as binding. To be noted: read-out: Ki Muscarinic M3, [3H]N-methylscopolamine.
The target of the next data set is T4, Progesterone (Bos taurus, UniProt F1N712).
T4 sequence (F1N712 1-914): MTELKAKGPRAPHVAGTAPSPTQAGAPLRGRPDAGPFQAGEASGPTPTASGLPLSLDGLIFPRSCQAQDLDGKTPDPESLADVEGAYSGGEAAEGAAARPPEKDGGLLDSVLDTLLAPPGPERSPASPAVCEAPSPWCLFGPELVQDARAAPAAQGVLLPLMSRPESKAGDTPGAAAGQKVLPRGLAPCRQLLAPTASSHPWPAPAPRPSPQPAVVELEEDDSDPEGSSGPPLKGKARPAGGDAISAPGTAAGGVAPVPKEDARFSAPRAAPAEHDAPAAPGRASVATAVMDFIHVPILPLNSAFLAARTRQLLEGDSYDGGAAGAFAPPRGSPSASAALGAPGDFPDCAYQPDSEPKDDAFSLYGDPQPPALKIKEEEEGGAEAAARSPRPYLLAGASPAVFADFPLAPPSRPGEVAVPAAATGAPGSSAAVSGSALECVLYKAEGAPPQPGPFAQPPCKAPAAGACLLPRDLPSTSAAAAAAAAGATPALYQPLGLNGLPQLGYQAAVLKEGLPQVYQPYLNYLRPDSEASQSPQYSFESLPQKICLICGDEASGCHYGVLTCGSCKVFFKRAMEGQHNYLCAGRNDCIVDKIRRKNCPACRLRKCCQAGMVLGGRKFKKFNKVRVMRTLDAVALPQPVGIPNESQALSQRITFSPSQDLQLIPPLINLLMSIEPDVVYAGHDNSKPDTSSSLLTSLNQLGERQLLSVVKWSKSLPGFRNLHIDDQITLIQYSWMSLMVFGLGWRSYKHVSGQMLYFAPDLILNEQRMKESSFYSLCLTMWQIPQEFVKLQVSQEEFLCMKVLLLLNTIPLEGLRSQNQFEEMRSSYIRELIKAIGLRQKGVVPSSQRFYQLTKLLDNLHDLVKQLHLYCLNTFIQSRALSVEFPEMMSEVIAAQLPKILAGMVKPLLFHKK
Nature of the data set: receptor screen, Progesterone. It counts as binding, Bovine. As to conditions: [3H]R-5020, inactive = displacement at 10,000 nM less than 75%.

In a further data set the target is T5, Testosterone (Rattus norvegicus, UniProt P15207).
T5 sequence (P15207 651-882 limits assumed): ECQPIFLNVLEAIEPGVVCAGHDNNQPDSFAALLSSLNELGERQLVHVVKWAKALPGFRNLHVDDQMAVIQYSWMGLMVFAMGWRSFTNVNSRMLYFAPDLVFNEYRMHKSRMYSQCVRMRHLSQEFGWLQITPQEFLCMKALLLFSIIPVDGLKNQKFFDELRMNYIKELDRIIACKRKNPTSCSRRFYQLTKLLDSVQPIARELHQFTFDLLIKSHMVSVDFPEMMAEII
In words: receptor screen, Testosterone. The data set is classed as binding. To be noted: inactive = displacement at 10,000 nM less than 75%.

For data set [1], the system named is extracellular DA levels in the NAC shell. Nature of the data set: In vivo microdialysis, extracellular DA in NAC shell. To be noted: rat.
Another data set has as its system rats. Nature of the data set: Place conditioning. The data set is classed as in vivo. As to conditions: rat, i.p. (1 to 10 mg/kg), injected immediately before conditioning sessions.
The test system of data set [2] is Glutamate, NMDA, phencyclidine. In words: receptor screen, Glutamate, NMDA, phencyclidine. To be noted: [3H]TCP, inactive = displacement at 10,000 nM less than 75%. The data set is classed as binding, Rat.
In a further data set the target is K+ Channel hERG (Homo sapiens, UniProt Q12809). Nature of the data set: receptor screen, K+ Channel hERG. As to conditions: read-out: Ki K+ Channel hERG; receptor screen, [3H]Astemizole. It counts as binding. (hERG is a cardiac potassium channel; its block is linked to QT prolongation.)
Sequence of K+ Channel hERG (Q12809 whole entry): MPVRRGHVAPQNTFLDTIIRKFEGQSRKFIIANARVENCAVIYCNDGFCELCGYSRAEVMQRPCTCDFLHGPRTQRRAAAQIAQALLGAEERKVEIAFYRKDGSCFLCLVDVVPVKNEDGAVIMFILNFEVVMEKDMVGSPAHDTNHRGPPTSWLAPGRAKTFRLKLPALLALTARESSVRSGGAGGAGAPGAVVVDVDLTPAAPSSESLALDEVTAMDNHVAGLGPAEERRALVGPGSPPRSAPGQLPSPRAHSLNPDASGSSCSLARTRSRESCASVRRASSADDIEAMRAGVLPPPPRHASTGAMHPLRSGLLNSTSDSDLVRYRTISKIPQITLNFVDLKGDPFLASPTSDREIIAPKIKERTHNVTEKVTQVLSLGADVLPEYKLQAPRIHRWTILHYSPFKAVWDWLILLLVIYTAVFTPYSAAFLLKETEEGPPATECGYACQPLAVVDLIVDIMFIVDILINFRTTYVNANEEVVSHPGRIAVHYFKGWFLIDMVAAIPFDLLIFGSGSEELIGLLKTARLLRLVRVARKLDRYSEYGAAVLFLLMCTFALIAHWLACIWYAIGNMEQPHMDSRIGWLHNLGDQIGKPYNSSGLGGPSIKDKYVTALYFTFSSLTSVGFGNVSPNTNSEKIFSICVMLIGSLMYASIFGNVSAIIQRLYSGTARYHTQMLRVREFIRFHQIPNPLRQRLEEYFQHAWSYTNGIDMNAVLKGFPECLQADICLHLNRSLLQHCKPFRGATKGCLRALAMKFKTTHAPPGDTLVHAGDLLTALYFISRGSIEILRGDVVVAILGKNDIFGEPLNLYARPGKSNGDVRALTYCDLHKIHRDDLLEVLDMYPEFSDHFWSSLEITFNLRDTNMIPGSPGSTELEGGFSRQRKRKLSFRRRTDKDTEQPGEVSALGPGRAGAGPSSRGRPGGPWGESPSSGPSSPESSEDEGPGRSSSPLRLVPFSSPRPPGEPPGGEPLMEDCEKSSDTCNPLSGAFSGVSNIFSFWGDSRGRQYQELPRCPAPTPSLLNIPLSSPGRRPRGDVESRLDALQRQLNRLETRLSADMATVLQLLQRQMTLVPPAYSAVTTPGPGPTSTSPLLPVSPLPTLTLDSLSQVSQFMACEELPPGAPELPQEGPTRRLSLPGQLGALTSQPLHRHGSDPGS
In a further data set the target is DAT. To be noted: read-out: Ki DAT; ref Newman and Katz (2009); cited from earlier work.
The next data set deals with SERT. As to conditions: read-out: Ki SERT; ref Woolverton et al., Psychopharmacology (2001); cited from earlier work.
For another data set, the target named is NET. As to conditions: read-out: Ki NET; ref Woolverton et al., Psychopharmacology (2001); cited from earlier work.

Sequence of Muscarinic M3 (P20309 whole entry): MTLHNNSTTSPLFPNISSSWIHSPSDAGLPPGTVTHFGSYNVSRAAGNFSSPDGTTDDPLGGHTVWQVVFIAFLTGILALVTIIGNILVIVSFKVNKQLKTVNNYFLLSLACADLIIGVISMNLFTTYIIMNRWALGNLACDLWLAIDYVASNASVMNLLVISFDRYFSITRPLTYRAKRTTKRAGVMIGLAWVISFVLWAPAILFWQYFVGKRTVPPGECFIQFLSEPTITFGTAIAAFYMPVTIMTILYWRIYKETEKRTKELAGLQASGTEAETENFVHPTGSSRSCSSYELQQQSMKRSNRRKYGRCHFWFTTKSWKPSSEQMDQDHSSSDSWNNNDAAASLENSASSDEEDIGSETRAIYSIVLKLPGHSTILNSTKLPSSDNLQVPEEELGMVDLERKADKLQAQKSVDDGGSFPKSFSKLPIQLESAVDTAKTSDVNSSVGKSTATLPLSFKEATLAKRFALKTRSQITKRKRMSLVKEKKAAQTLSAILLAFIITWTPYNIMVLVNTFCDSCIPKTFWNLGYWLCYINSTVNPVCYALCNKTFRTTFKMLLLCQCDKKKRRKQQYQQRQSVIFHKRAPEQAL
Sequence of Dopamine D2L (P14416 whole entry): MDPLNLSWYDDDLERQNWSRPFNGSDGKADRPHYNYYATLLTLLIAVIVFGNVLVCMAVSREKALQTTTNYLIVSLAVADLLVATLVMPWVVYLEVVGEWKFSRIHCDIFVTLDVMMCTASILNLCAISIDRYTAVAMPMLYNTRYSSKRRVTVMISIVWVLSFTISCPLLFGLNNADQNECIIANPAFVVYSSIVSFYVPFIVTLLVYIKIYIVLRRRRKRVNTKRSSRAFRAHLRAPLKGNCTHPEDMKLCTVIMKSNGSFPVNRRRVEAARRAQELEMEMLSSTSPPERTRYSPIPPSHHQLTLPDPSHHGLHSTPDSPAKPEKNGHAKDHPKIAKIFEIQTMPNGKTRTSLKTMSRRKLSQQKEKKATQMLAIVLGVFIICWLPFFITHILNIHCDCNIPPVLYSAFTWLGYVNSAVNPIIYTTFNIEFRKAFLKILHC
Sequence of Estrogen ERα (P03372 whole entry): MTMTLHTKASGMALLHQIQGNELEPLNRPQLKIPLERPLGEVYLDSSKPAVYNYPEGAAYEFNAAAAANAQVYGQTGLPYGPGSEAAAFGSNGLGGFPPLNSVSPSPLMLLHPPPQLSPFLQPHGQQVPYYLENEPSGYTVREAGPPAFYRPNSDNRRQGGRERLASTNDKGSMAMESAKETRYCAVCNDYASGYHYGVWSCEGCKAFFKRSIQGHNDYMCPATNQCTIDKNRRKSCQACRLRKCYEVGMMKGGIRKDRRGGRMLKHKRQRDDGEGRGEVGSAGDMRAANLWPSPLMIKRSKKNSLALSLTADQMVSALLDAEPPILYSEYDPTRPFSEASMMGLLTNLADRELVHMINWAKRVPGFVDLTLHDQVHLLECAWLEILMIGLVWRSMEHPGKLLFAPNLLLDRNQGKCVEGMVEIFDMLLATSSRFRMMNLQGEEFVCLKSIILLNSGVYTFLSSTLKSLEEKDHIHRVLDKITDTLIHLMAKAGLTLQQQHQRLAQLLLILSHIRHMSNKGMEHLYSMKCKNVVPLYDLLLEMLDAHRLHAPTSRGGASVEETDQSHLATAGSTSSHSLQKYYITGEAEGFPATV

Turning to `CN1C2CCC1CC(OC(c1ccc(Cl)cc1)c1ccc(Cl)cc1)C2` (stereo not drawn) [4,4-diCl-BZT, 4′-chloro-4″-chloro-3α-(diphenylmethoxy)tropane], the “Ki Adenosine A1” value at Adenosine A1 is “inactive”. The “Ki Dopamine D2L” value on Dopamine D2L is “inactive”. Further, the “Ki Estrogen ERα” value at Estrogen ERα is “inactive”. Further, the “Ki Glucocorticoid” value at Glucocorticoid was “inactive”. Also, the Ki on Muscarinic M2 stood at 0.64 µM; at Muscarinic M3 it was 0.01 µM. In addition, the “Ki Progesterone” value on Progesterone was “inactive”. The “Ki Testosterone” value at Testosterone was “inactive”. The “effect on dialysate DA levels from the NAC shell” value in data set [1] (1.0 mg/kg i.p.) was “did not significantly affect DA levels”; in [1] (3.0 mg/kg i.p.) it was “did not significantly affect DA levels”; in data set [1] (10 mg/kg i.p.), “significant increase in DA levels”. Also, the “time after injection at which DA exceeded 165% of basal values” in [1] (10 mg/kg i.p.) was no more than 20 min. Also, the “time after injection until which DA increase continued (peak)” value in [1] (10 mg/kg i.p.) is recorded as “about 140 min”. For the same compound, the “place conditioning (time allocated to compound-paired compartment)” value in the data set on rats is given as “without significant place-conditioning effects”.

For `CN1C2CCC1CC(OC(c1ccccc1)c1ccc(Cl)cc1)C2` (stereo not drawn) [4-Cl-BZT, 4′-chloro-3α-(diphenylmethoxy)tropane], the “Ki Adenosine A1” value at Adenosine A1 was “inactive”. Moreover, the “Ki Glutamate, NMDA, phencyclidine” value in data set [2] was “inactive”. Besides, the Ki was 0.00588 ± 0.00063 µM on Muscarinic M2; 0.000384 ± 4.3e-05 µM at Muscarinic M3; 0.804 ± 0.3 µM at K+ Channel hERG; 0.0105 ± 0.00121 µM at DAT; 5.12 ± 0.395 µM on SERT; 1.47 ± 0.18 µM at NET. Besides, the “place conditioning (time allocated to compound-paired compartment)” value in the data set with rats is listed as “did not increase the time allocated to the compound-paired compartment”.
